The record followed here is article PMC7515484, “Sphingosine kinase 2 inhibitor ABC294640 suppresses neuronal excitability and inhibits multiple endogenously and exogenously expressed voltage-gated ion channels in cultured cells” (Channels, 2020).

The target in one assay is T1, KV4.2 (Homo sapiens, UniProt Q9NZV8).
T1 construct: gene KCND2
T1 sequence (Q9NZV8 1-630): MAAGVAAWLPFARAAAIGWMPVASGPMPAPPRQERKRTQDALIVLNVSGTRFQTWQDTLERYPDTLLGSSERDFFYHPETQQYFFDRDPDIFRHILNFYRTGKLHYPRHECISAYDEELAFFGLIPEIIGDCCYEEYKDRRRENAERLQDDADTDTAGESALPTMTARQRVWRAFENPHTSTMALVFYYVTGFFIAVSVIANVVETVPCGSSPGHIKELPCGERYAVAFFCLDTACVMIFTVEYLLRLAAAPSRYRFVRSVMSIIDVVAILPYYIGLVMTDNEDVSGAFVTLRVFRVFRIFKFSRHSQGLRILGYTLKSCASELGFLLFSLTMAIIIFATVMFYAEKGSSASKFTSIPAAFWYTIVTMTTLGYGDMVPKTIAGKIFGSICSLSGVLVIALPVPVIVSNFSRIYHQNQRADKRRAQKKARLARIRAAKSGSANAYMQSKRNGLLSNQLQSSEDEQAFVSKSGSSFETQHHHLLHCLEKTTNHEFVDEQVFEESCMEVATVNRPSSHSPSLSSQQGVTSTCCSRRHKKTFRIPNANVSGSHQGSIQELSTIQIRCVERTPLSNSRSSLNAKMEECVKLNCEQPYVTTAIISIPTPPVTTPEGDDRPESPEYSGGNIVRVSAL
Nature of the assay: whole-cell patch clamp, persistent current, transfected HEK293T cells. It is filed as cell-based. (The patch-clamp technique gives a direct electrical read-out from membranes.)

A further assay concerns the target T2, KV1.4 (Homo sapiens, UniProt P22459).
T2 construct: gene KCNA4; human KCNA4 cDNA in pCMV3, expressed in HEK293T cells
Described as above. It is filed as cell-based.

T2 sequence (P22459 whole entry): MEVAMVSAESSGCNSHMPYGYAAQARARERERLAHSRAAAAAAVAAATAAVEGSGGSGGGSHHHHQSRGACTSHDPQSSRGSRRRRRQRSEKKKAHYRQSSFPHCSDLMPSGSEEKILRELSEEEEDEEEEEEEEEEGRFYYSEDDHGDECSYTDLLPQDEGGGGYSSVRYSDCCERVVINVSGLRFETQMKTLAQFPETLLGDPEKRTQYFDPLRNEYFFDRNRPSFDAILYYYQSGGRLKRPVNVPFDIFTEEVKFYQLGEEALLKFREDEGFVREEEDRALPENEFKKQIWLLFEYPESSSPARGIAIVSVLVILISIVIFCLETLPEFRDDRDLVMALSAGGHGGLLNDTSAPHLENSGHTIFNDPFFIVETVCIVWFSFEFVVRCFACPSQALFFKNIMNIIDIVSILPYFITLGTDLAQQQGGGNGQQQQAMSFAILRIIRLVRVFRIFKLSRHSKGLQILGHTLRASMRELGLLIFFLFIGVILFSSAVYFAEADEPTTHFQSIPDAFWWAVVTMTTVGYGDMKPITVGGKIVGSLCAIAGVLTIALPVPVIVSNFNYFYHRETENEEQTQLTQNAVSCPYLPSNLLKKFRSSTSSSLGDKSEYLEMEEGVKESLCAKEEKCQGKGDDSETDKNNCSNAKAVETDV

By IC50 is commonly meant the point on the concentration scale where inhibition reaches its midpoint. Read a high IC50 as lower potency. Take `O=C(NCc1ccncc1)C12CC3CC(C1)CC(c1ccc(Cl)cc1)(C3)C2` [ABC294640]: the IC50 amounted to 4.77 ± 0.68 µM on KV4.2 and 2.76 ± 0.28 µM at KV1.4.
